According to PubChem BioAssay (NCI):
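Assay format: 96-well plates, 48-hour exposure. At the GI50, growth is halved. At the TGI there is no net growth.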

Assays:
Assay in all cases: DTP human tumour cell line panel, 48 h
HCT-15 colon = tested on: HCT-15 colon
MOLT-4 leukemia = tested on: MOLT-4 leukemia
SK-MEL-5 melanoma = tested on: SK-MEL-5 melanoma
SNB-19 CNS = tested on: SNB-19 CNS
KM12 colon = tested on: KM12 colon
SF-268 CNS = tested on: SF-268 CNS
CAKI-1 renal = tested on: CAKI-1 renal
U251 CNS = tested on: U251 CNS
MCF7 breast = tested on: MCF7 breast
HL-60(TB) leukemia = tested on: HL-60(TB) leukemia
SN12C renal = tested on: SN12C renal
SK-MEL-28 melanoma = tested on: SK-MEL-28 melanoma
UO-31 renal = tested on: UO-31 renal
MALME-3M melanoma = tested on: MALME-3M melanoma
BT-549 breast = tested on: BT-549 breast
HCC-2998 colon = tested on: HCC-2998 colon
A498 renal = tested on: A498 renal
RXF 393 renal = tested on: RXF 393 renal
K-562 leukemia = tested on: K-562 leukemia
SK-MEL-2 melanoma = tested on: SK-MEL-2 melanoma
MDA-MB-435 = tested on: MDA-MB-435
MDA-MB-231 breast = tested on: MDA-MB-231 breast
PC-3 prostate = tested on: PC-3 prostate
HOP-92 NSCLC = tested on: HOP-92 NSCLC
NCI/ADR-RES ovarian = tested on: NCI/ADR-RES ovarian
ACHN renal = tested on: ACHN renal
NCI-H460 lung = tested on: NCI-H460 lung
UACC-62 melanoma = tested on: UACC-62 melanoma
RPMI-8226 leukemia = tested on: RPMI-8226 leukemia
NCI-H23 lung = tested on: NCI-H23 lung
OVCAR-5 ovarian = tested on: OVCAR-5 ovarian
786-0 renal = tested on: 786-0 renal
COLO 205 colon = tested on: COLO 205 colon
HS 578T breast = tested on: HS 578T breast
EKVX NSCLC = tested on: EKVX NSCLC
A549 NSCLC = tested on: A549 NSCLC
NCI-H226 lung = tested on: NCI-H226 lung
NCI-H522 lung = tested on: NCI-H522 lung
HCT-116 colon = tested on: HCT-116 colon
OVCAR-8 ovarian = tested on: OVCAR-8 ovarian
OVCAR-4 ovarian = tested on: OVCAR-4 ovarian
SF-539 CNS = tested on: SF-539 CNS
SNB-75 CNS = tested on: SNB-75 CNS
SF-295 CNS = tested on: SF-295 CNS
SW-620 colon = tested on: SW-620 colon
OVCAR-3 ovarian = tested on: OVCAR-3 ovarian
SR leukemia = tested on: SR leukemia
CCRF-CEM leukemia = tested on: CCRF-CEM leukemia
IGROV1 ovarian = tested on: IGROV1 ovarian
TK-10 renal = tested on: TK-10 renal
M14 melanoma = tested on: M14 melanoma
DU-145 prostate = tested on: DU-145 prostate
HT29 colon = tested on: HT29 colon
HOP-62 NSCLC = tested on: HOP-62 NSCLC
LOX IMVI melanoma = tested on: LOX IMVI melanoma
SK-OV-3 ovarian = tested on: SK-OV-3 ovarian
T-47D breast = tested on: T-47D breast
UACC-257 melanoma = tested on: UACC-257 melanoma

Compound O=C(N/N=C/c1ccncc1)c1ccc(F)cc1 has a GI50 (HCT-15 colon) of over 40 µM, a TGI (HCT-15 colon) of over 40 µM and a GI50 (MOLT-4 leukemia) of over 40 µM. It also gave a TGI (MOLT-4 leukemia) of over 40 µM, a GI50 (SK-MEL-5 melanoma) of over 40 µM and a TGI (SK-MEL-5 melanoma) of over 40 µM. The GI50 (SNB-19 CNS) was over 40 µM, the TGI (SNB-19 CNS) was over 40 µM and the GI50 (KM12 colon) was over 40 µM. For the same compound, the TGI (KM12 colon) was over 40 µM, the GI50 (SF-268 CNS) was over 40 µM and the TGI (SF-268 CNS) was over 40 µM. For the same compound, the GI50 (CAKI-1 renal) was over 40 µM, the TGI (CAKI-1 renal) was over 40 µM and the GI50 (U251 CNS) was over 40 µM. For the same compound, the TGI (U251 CNS) was over 40 µM, the GI50 (MCF7 breast) was over 40 µM and the TGI (MCF7 breast) was over 40 µM. The GI50 (HL-60(TB) leukemia) was over 40 µM, the TGI (HL-60(TB) leukemia) was over 40 µM and the GI50 (SN12C renal) was over 40 µM. For the same compound, the TGI (SN12C renal) was over 40 µM, the GI50 (SK-MEL-28 melanoma) was over 40 µM and the TGI (SK-MEL-28 melanoma) was over 40 µM. For the same compound, the GI50 (UO-31 renal) was over 40 µM, the TGI (UO-31 renal) was over 40 µM and the GI50 (MALME-3M melanoma) was over 40 µM. The TGI (MALME-3M melanoma) was over 40 µM, the GI50 (BT-549 breast) was over 40 µM and the TGI (BT-549 breast) was over 40 µM. It also gave a GI50 (HCC-2998 colon) of over 40 µM, a TGI (HCC-2998 colon) of over 40 µM and a GI50 (A498 renal) of 34.8 µM. It also gave a TGI (A498 renal) of over 40 µM, a GI50 (RXF 393 renal) of over 40 µM and a TGI (RXF 393 renal) of over 40 µM. The GI50 (K-562 leukemia) was over 40 µM, the TGI (K-562 leukemia) was over 40 µM and the GI50 (SK-MEL-2 melanoma) was over 40 µM. For the same compound, the TGI (SK-MEL-2 melanoma) was over 40 µM, the GI50 (MDA-MB-435) was over 40 µM and the TGI (MDA-MB-435) was over 40 µM. It also gave a GI50 (MDA-MB-231 breast) of over 40 µM, a TGI (MDA-MB-231 breast) of over 40 µM and a GI50 (PC-3 prostate) of over 40 µM. The TGI (PC-3 prostate) was over 40 µM, the GI50 (HOP-92 NSCLC) was over 40 µM and the TGI (HOP-92 NSCLC) was over 40 µM. For the same compound, the GI50 (NCI/ADR-RES ovarian) was over 40 µM, the TGI (NCI/ADR-RES ovarian) was over 40 µM and the GI50 (ACHN renal) was over 40 µM. For the same compound, the TGI (ACHN renal) was over 40 µM, the GI50 (NCI-H460 lung) was over 40 µM and the TGI (NCI-H460 lung) was over 40 µM. It also gave a GI50 (UACC-62 melanoma) of over 40 µM, a TGI (UACC-62 melanoma) of over 40 µM and a GI50 (RPMI-8226 leukemia) of over 40 µM. The TGI (RPMI-8226 leukemia) was over 40 µM, the GI50 (NCI-H23 lung) was over 40 µM and the TGI (NCI-H23 lung) was over 40 µM. The GI50 (OVCAR-5 ovarian) was over 40 µM, the TGI (OVCAR-5 ovarian) was over 40 µM and the GI50 (786-0 renal) was over 40 µM. It also gave a TGI (786-0 renal) of over 40 µM, a GI50 (COLO 205 colon) of over 40 µM and a TGI (COLO 205 colon) of over 40 µM. The GI50 (HS 578T breast) was over 40 µM, the TGI (HS 578T breast) was over 40 µM and the GI50 (EKVX NSCLC) was over 40 µM. For the same compound, the TGI (EKVX NSCLC) was over 40 µM, the GI50 (A549 NSCLC) was over 40 µM and the TGI (A549 NSCLC) was over 40 µM. For the same compound, the GI50 (NCI-H226 lung) was over 40 µM, the TGI (NCI-H226 lung) was over 40 µM and the GI50 (NCI-H522 lung) was over 40 µM. For the same compound, the TGI (NCI-H522 lung) was over 40 µM, the GI50 (HCT-116 colon) was over 40 µM and the TGI (HCT-116 colon) was over 40 µM. It also gave a GI50 (OVCAR-8 ovarian) of over 40 µM, a TGI (OVCAR-8 ovarian) of over 40 µM and a GI50 (OVCAR-4 ovarian) of over 40 µM. For the same compound, the TGI (OVCAR-4 ovarian) was over 40 µM, the GI50 (SF-539 CNS) was over 40 µM and the TGI (SF-539 CNS) was over 40 µM. For the same compound, the GI50 (SNB-75 CNS) was over 40 µM, the TGI (SNB-75 CNS) was over 40 µM and the GI50 (SF-295 CNS) was over 40 µM. The TGI (SF-295 CNS) was over 40 µM, the GI50 (SW-620 colon) was over 40 µM and the TGI (SW-620 colon) was over 40 µM. The GI50 (OVCAR-3 ovarian) was over 40 µM, the TGI (OVCAR-3 ovarian) was over 40 µM and the GI50 (SR leukemia) was over 40 µM. The TGI (SR leukemia) was over 40 µM, the GI50 (CCRF-CEM leukemia) was over 40 µM and the TGI (CCRF-CEM leukemia) was over 40 µM. The GI50 (IGROV1 ovarian) was over 40 µM, the TGI (IGROV1 ovarian) was over 40 µM and the GI50 (TK-10 renal) was over 40 µM. The TGI (TK-10 renal) was over 40 µM, the GI50 (M14 melanoma) was over 40 µM and the TGI (M14 melanoma) was over 40 µM. It also gave a GI50 (DU-145 prostate) of over 40 µM, a TGI (DU-145 prostate) of over 40 µM and a GI50 (HT29 colon) of over 40 µM. It also gave a TGI (HT29 colon) of over 40 µM, a GI50 (HOP-62 NSCLC) of over 40 µM and a TGI (HOP-62 NSCLC) of over 40 µM. For the same compound, the GI50 (LOX IMVI melanoma) was over 40 µM, the TGI (LOX IMVI melanoma) was over 40 µM and the GI50 (SK-OV-3 ovarian) was over 40 µM. It also gave a TGI (SK-OV-3 ovarian) of over 40 µM, a GI50 (T-47D breast) of over 40 µM and a TGI (T-47D breast) of over 40 µM. It also gave a GI50 (UACC-257 melanoma) of over 40 µM and a TGI (UACC-257 melanoma) of over 40 µM.
